Data: publication PMC6538953, “Metal Ions Activate the Human Taste Receptor TAS2R7” (Chemical Senses, 2019)
Numbering of substitutions follows the chain as printed. “Also recorded” adds a separate entry of the source. Structures can show the parent of a compound that is named as a salt. Where two headings read alike, the source gives them in different places.

Experiments:
[1] = target: T1, human TAS2R7 (Homo sapiens, UniProt Q9NYW3); test: Calcium mobilization assay, HEK293 cells transfected with TAS2R7 and Gα16-gust44; assay type: cell-based; conditions: for Activation of TAS2R7 by metal ions: 20 mM, Figure 1A,B; for Dose dependence of TAS2R7 response: Figure 2A,C; for Compounds triggering detectable responses in cells transfected with TAS2R7: at the concentrations reported previously (Meyerhof et al. 2010), Figure 4A
T1 construct: first 45 residues of rat somatostatin receptor 3 (signal peptide) (N); expressed in transfected cells; host or cells: HEK293 (PEAKrapid, ATCC CRL-2828)
T1 sequence (Q9NYW3 1-318): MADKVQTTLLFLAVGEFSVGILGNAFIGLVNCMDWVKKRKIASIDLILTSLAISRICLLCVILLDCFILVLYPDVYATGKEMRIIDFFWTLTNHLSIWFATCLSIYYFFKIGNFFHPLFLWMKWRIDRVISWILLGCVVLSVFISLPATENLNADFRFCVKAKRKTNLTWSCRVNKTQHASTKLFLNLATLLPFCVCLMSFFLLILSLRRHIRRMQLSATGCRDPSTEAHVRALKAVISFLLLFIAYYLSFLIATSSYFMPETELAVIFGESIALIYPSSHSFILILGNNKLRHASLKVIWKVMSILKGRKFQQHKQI
Description: (§1) The coding sequences of human TAS2Rs were amplified from human genomic DNA, then subcloned into pcDNA3.1(+) vector, with the herpes simplex virus glycoprotein D epitope (HSV) at the C-terminal and a signal peptide consisting of the first 45 amino acid residues of the rat somatostatin receptor 3 at the N-terminal, essentially as described previously ([Bufe et al. 2002]). Point mutations in human TAS2R7 (NCBI Reference Sequence: NP_076408.1) were constructed by site-directed mutagenesis. All the constructs were confirmed by Sanger sequencing.
All tested compounds were purchased from Sigma–Aldrich, with the exception of diphenidol hydrochloride (Reagent World) and L-praziquantel (manufactured by Shaoxing Pharmaceutical Co. Ltd.). All the metal ions were dissolved in the assay solution (130 mM NaCl, 5 mM KCl, 2 mM CaCl2, and 10 mM glucose; pH 7.4) unless specified otherwise, and the bitter compounds (diphenidol, quinine, and chlorphenamine) were dissolved first in dimethyl sulfoxide (DMSO) as stock solution and then diluted with the assay solution; the final DMSO concentration was below 0.5%, with the exception of cromolyn, which is dissolved in the assay solution directly. For our initial screening (Table 1), Hanks’ balanced salt solution (HBSS, ThermoFisher, catalog no. 14025134) supplemented with 10 mM hydroxyethyl piperazineethanesulfonic acid (HEPES) were used as the assay buffer.
(§2) Human embryonic kidney 293 (PEAKrapid, ATCC # CRL-2828) cells were cultured in Opti-MEM medium with 4% fetal bovine serum. One day before transfection, cells were seeded on a 96-well plate at a density of 25 000 per well. Cells were then transiently transfected with a TAS2R construct (0.1 µg/well) along with a G protein Gα16-gust44 (0.1 µg/well) construct by Lipofectamine 2000 (0.5 µl/well). For controls, only Gα16-gust44 was used (mock transfection). Twenty-four hours after transfection, cells were washed with HBSS including 10 mM HEPES and loaded with Fluo-4 in the dark for 1 h. After incubation, cells were washed 2 times with HBSS (including 10 mM HEPES), incubated in the dark for another 30 min, and then washed with assay solution once more before running the assay using a FlexStation III reader. Relative fluorescence units (excitation at 494 nm, emission at 516 nm, and auto cutoff at 515 nm) were read every 2 s for 2 min. Calcium mobilization traces were recorded.
(§3) Calcium mobilization traces were raw data obtained from single wells. Changes in fluorescence (ΔF) were calculated as the peak fluorescence minus baseline fluorescence ([Lei et al. 2015]). The calcium mobilization was quantified as the percentage of change (ΔF) relative to baseline (F). […] Calcium mobilization traces and bar graphs along with dose-dependent plots were all generated by GraphPad Prism 7. Analysis of variance with Dunnett’s multiple comparisons test was used for statistical analysis. *P < 0.05.
To determine whether a TAS2R responds to metal ions, we expressed all 25 human bitter receptors individually in HEK293 cells (PEAKrapid) by transient transfection of a TAS2R along with a coupling chimeric G protein, Gα16-gust44. All TAS2Rs were cloned from human genomic DNA. Activation of human TAS2Rs was monitored by the calcium mobilization assay ([Lei et al. 2015]). We tested these receptors individually for their responses toward metal ions: ZnSO4 (20 mM), CuSO4 (20 mM), and MgCl2 (20 mM) (Table 1, Figure 1A). […] To determine the breadth of tuning of TAS2R7 toward metal ions, we also tested MnCl2 (20 mM), Al2(SO4)3 ([…]), and CaCl2 (20 mM) (Figure 1B).

[2] = target: T2, human TAS2R14 (Homo sapiens, UniProt Q9NYV8); test: Calcium mobilization assay, HEK293 cells transfected with TAS2R14 and Gα16-gust44; assay type: cell-based; conditions: 0.5 mM; Figure 3B
T2 construct: first 45 residues of rat somatostatin receptor 3 (signal peptide) (N); expressed in transfected cells; host or cells: HEK293 (PEAKrapid, ATCC CRL-2828)
T2 sequence (Q9NYV8 1-317): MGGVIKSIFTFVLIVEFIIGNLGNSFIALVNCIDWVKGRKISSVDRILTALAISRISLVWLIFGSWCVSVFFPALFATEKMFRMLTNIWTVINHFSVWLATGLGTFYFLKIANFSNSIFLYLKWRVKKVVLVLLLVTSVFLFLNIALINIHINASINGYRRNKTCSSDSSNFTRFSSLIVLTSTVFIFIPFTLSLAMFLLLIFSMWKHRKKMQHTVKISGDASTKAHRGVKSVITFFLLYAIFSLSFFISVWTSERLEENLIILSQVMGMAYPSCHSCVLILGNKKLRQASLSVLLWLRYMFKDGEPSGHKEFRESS
Description: as §1, with “sequencing. […]” for “sequencing.”
(§4) Human embryonic kidney 293 (PEAKrapid, ATCC # CRL-2828) cells were cultured in Opti-MEM medium with 4% fetal bovine serum. […] After incubation, cells were washed 2 times with HBSS (including 10 mM HEPES), incubated in the dark for another 30 min, and then washed with assay solution once more before running the assay using a FlexStation III reader. Relative fluorescence units (excitation at 494 nm, emission at 516 nm, and auto cutoff at 515 nm) were read every 2 s for 2 min. Calcium mobilization traces were recorded.
(§5) Calcium mobilization traces were raw data obtained from single wells. Changes in fluorescence (ΔF) were calculated as the peak fluorescence minus baseline fluorescence ([Lei et al. 2015]). The calcium mobilization was quantified as the percentage of change (ΔF) relative to baseline (F). […]

[3] = target: T3, human TAS2R7 H94^3.37F mutant (Homo sapiens, UniProt Q9NYW3, H94F); test: Calcium mobilization assay, TAS2R7 mutant H94F; assay type: cell-based; conditions: 20 mM metal ions except 0.16 mM Al2(SO4)3; Figure 6B
T3 construct: signal peptide: first 45 amino acid residues of rat somatostatin receptor 3 (N); expressed in transfected cells; host or cells: HEK293 PEAKrapid (ATCC CRL-2828), transient, co-transfected with Gα16-gust44
T3 sequence (Q9NYW3 1-318 H94F): T1 sequence (Q9NYW3 1-318) with H94F
Description: as §1, §4, §5

[4] = target: T4, human TAS2R7 E264^7.32K mutant (Homo sapiens, UniProt Q9NYW3, E264K); test: Calcium mobilization assay, TAS2R7 mutant E264K; assay type: cell-based; conditions: 20 mM metal ions except 0.16 mM Al2(SO4)3; cromolyn 10 mM; Figure 6B
T4 construct: signal peptide: first 45 amino acid residues of rat somatostatin receptor 3 (N); expressed in transfected cells; host or cells: HEK293 PEAKrapid (ATCC CRL-2828), transient, co-transfected with Gα16-gust44
T4 sequence (Q9NYW3 1-318 E264K): T1 sequence (Q9NYW3 1-318) with E264K
Description: as §1, §2, §3
To assess the importance of these residues, we performed site-directed mutagenesis. We mutated the negatively charged residues E16^1.42, E264^7.32, and E271^7.39 to Q (glutamine), K (lysine), or L (leucine). The facing H94^3.37 was mutated to F (phenylalanine). HEK293 cells that expressed mutant receptors along with Gα16-gust44 were examined for their responses to metal ions (20 mM for all except 0.16 mM Al2(SO4)3) and cromolyn (10 mM, as a positive control) to assess receptor’s function. To determine the expression level of each receptor, we stained the wild-type or mutant receptor-transfected cells using an anti-HSV antibody since all the receptors are tagged with HSV at c-terminal. […]

[5] = target: T5, human TAS2R7 E264^7.32L mutant (Homo sapiens, UniProt Q9NYW3, E264L); test: Calcium mobilization assay, TAS2R7 mutant E264L; assay type: cell-based; conditions: 20 mM metal ions except 0.16 mM Al2(SO4)3; cromolyn 10 mM; Figure 6B
T5 construct: signal peptide: first 45 amino acid residues of rat somatostatin receptor 3 (N); expressed in transfected cells; host or cells: HEK293 PEAKrapid (ATCC CRL-2828), transient, co-transfected with Gα16-gust44
T5 sequence (Q9NYW3 1-318 E264L): T1 sequence (Q9NYW3 1-318) with E264L
Description: as §1, §2
as §3, with “0.05. […]” for “0.05.”

[6] = target: T1, human TAS2R7; parameters: method as in Meyerhof et al. 2010; conditions: ref Meyerhof et al. 2010; cited from earlier work
[7] = assay solution containing calcium, Figures 3A, 4C, read-out: EC50, TAS2R7, in the presence of calcium
[8] = assay solution containing no calcium, Figures 3A, 4C, read-out: EC50, TAS2R7, in the absence of calcium
[9] = assay solution with 2 mM CaCl2, Figure 2, read-out: EC50, TAS2R7 concentration-response
[10] = Supplementary Figure S2, read-out: EC50, TAS2R7, comparison of anions

SMILES | Dose dependence of TAS2R7 response [1] | EC50 [1, 7] | EC50 [1, 8] | EC50 [1, 9] | further results
O=S(=O)([O-])[O-].[Cu+2] [CuSO4] | dose-dependent responses | 1.89 mM | 0.85 mM | 1.04 ± 0.36 mM | 
[Cl-].[K+] [KCl, potassium chloride] |  |  |  |  | Activation of TAS2R7 by monovalent salt ([1]; any concentration tested, Figures 1C,D and 2A): did not activate the receptor; also recorded: not responsive
O=C(C1CCCCC1)N1CC(=O)N2CCc3ccccc3[C@@H]2C1 [L-praziquantel] |  |  |  |  | Response amplitude of TAS2R14 in the absence versus presence of calcium [2]: reduced response amplitude
[Cl-].[Cl-].[Mg+2] [MgCl2] | dose-dependent responses | 7.84 mM | 5.78 mM | 6.07 ± 1.07 mM | Maximal response of TAS2R7 in the absence versus presence of calcium ([1]; assay solution without calcium compared with calcium): smaller
[Cl][Mn][Cl] [MnCl2] | dose-dependent responses | 2.24 mM | 7.19 mM | 6.59 ± 1.73 mM | Activation of TAS2R7 by metal ions [1]: activated the receptor; Response of H94F mutant receptor [3]: diminished responses; Response of E264K mutant receptor [4]: still responsive
[Cl-].[Cl-].[Zn+2] [ZnCl2] |  |  |  |  | EC50 [1, 10]: 3.42 mM
CN(C)CCC(c1ccc(Cl)cc1)c1ccccn1 (stereo not drawn) [chlorphenamine, reference compound] |  |  |  |  | Compounds triggering detectable responses in cells transfected with TAS2R7 [1]: none; TAS2R7 reported to respond to bitter compounds [6]: respond
OC(CCCN1CCCCC1)(c1ccccc1)c1ccccc1 [diphenidol, diphenidol hydrochloride, reference compound] |  |  |  |  | Compounds triggering detectable responses in cells transfected with TAS2R7 [1]: none; TAS2R7 reported to respond to bitter compounds [6]: respond
C=C[C@H]1C[N@@]2CC[C@H]1C[C@H]2[C@H](O)c1ccnc2ccc(OC)cc12 [quinine, reference compound] |  |  |  |  | Compounds triggering detectable responses in cells transfected with TAS2R7 [1]: none; TAS2R7 reported to respond to bitter compounds [6]: respond

Continued, in another order:

Dose dependence of TAS2R7 response [1] | EC50 [1, 7] | EC50 [1, 8] | EC50 [1, 9] | SMILES | further results
dose-dependent responses | 7.56 mM | 4.7 mM | 5.27 ± 0.5 mM | [Ca+2].[Cl-].[Cl-] [CaCl2] | Activation of TAS2R7 by metal ions [1]: activated the receptor
dose-dependent responses | 2.41 mM | 3.49 mM |  | O=S(=O)([O-])[O-].[Zn+2] [ZnSO4] | EC50 [1, 10]: 3.21 mM; Response of E264K mutant receptor [4]: specific loss of responses; Response of E264L mutant receptor [5]: responded
